pIC50: −log10 of the molar value. Where two headings read alike, the source gives them in different places.
Experiments:
ERα_LBD (GST) = ERα_LBD (GST) (Homo sapiens (Human), UniProt P03372); assay: IC50 measurements for binding to ERα_LBD (GST), LanthaScreen TR-FRET competitive binding; conditions: ERα_LBD (GST) 4 nM, Fluormone ES2 Green tracer, 60 min; read-out: ERα HTRF IC50
How it was run: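 Competitive TR-FRET displacement of Fluormone ES2 Green tracer (3 nM) from GST-tagged human ERα LBD (4 nM) with Tb anti-GST (2 nM), in nuclear receptor buffer K plus 5 mM DTT, 1% DMSO. 60 min at room temperature, dark; 520/495 nm ratio vs log[compound] fitted sigmoidally for IC50.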

ER in MCF-7 cells = ER in MCF-7 cells (Homo sapiens (Human), UniProt P03372); assay: In-cell Western (ICW) ER degradation assay in MCF-7 cells; type: cell-based; conditions: for DC50: MCF-7, ER degradation, read-out: MCF7 DC50
ER in T47D cells = ER in T47D cells (Homo sapiens (Human), UniProt P03372); assay: In-cell Western (ICW) ER degradation assay in T47D cells; type: cell-based; conditions: for DC50: ER degradation
MCF-7 cells = assay: CellTiter-Glo (CTG) cell proliferation assay in MCF-7 cells; type: cell-based; conditions: Homo sapiens, MCF7, 144 h, MCF-7 cell proliferation, Day 6
Excerpt: (§1) CellTiter-Glo® (CTG) Assays in MCF-7 and T47D Cell Lines.
(§2) In vitro Assay: MCF-7 and T47D CTG assay

T47D cells = assay: CellTiter-Glo (CTG) cell proliferation assay in T47D cells; type: cell-based; conditions: Homo sapiens, 144 h, Day 6
Excerpt: as §1, §2

CRBN/DDB1 = CRBN/DDB1 (Homo sapiens (Human), UniProt Q96SW2); type: binding; conditions: His tagged CRBN+DDB1, Cy5-labeled Thalidomide probe, one hour; read-out: CRBN HTRF IC50
Description: The binding potency was determined using HTRF assay technology (Perkin Elmer). Compounds were serially diluted in DMSO and […] volume was transferred to white 384-well plate.

[1] = MCF7, read-out: MCF7 Dmax, MCF-7, maximal ER degradation, 16 hrs treatment
[2] = read-out: T47D Dmax, T47D, maximal ER degradation, 16 hrs treatment
[3] = MCF7, MCF-7, maximal ER degradation, 16 hrs treatment, read-out: MCF7 Dmax
[4] = maximal ER degradation, 16 hrs treatment, read-out: T47D Dmax

Chain of ERα_LBD (GST) (P03372 311-547): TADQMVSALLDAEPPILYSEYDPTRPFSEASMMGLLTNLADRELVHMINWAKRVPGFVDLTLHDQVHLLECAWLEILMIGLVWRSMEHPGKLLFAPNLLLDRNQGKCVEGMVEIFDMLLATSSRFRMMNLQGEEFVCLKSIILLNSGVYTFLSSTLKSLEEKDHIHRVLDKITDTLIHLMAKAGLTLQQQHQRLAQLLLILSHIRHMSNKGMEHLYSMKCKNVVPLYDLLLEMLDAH
Chain of ER in T47D cells (P03372 whole entry): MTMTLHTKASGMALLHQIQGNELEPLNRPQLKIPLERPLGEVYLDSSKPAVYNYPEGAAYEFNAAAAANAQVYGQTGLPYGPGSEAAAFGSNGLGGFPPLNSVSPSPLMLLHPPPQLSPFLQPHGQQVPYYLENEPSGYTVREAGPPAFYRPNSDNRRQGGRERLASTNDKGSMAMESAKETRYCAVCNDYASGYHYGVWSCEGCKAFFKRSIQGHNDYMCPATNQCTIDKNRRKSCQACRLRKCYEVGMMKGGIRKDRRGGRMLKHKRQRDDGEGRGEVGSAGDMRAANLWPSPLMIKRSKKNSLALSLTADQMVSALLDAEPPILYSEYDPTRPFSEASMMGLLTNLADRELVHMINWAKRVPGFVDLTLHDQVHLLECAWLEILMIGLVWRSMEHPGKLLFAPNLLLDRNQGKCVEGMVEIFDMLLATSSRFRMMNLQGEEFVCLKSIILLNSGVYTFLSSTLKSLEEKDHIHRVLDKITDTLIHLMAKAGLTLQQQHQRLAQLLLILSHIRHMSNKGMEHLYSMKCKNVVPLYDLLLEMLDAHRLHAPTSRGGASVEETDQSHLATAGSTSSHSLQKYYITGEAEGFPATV
Chain of ER in MCF-7 cells (P03372 whole entry): as above
Chain of CRBN/DDB1 (Q96SW2 whole entry, species assumed): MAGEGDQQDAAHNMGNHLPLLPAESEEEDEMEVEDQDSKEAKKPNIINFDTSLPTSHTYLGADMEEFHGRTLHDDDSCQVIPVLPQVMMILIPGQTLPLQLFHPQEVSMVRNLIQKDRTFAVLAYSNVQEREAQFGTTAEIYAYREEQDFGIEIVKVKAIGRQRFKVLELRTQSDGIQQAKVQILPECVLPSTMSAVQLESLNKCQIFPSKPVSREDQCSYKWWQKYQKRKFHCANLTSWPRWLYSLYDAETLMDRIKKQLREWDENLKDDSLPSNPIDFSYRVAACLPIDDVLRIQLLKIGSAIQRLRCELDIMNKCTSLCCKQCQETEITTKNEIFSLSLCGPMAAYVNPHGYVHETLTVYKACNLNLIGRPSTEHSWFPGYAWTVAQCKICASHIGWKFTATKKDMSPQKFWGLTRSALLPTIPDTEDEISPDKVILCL
Chain of CRBN/DDB1 (Q16531 whole entry partner, species assumed): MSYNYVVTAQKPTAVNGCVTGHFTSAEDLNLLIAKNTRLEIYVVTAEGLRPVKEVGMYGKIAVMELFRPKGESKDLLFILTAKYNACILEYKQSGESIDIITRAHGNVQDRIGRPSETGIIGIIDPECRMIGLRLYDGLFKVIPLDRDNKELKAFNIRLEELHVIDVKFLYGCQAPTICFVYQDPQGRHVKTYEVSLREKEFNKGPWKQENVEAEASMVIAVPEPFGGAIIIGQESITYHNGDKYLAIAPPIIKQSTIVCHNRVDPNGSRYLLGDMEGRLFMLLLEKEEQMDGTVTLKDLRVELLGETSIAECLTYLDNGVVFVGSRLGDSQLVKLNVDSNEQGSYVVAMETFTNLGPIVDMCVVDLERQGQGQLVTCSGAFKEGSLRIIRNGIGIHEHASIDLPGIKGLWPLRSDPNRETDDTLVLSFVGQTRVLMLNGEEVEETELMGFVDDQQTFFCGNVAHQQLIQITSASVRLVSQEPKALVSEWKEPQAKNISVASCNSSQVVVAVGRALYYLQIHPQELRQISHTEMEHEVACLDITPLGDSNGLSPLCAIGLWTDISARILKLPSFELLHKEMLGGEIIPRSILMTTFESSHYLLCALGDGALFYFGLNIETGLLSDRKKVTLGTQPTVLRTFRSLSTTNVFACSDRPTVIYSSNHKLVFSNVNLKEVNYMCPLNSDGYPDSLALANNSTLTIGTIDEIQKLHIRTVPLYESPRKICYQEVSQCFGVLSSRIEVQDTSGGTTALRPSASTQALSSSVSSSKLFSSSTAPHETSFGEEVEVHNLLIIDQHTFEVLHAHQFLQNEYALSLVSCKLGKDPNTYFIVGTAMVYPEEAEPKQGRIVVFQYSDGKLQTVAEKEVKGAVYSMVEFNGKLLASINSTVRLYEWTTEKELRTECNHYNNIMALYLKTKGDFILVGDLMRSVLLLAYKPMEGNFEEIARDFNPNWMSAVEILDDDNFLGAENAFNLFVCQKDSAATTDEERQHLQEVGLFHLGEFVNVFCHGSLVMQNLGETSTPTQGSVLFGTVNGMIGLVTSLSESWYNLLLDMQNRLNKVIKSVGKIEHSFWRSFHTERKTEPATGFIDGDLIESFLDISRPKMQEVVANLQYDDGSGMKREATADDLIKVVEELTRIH

## COc1cc(N2CCC3(CC2)C[C@H](CN2CCC4(CC2)COc2c4ccc4c2CN([C@H]2CCC(=O)NC2=O)C4=O)CO3)c(F)cc1[C@@H]1c2ccc(O)cc2CC[C@@H]1c1ccccc1 [Compound A176]
ERα_LBD (GST)
  pIC50: > 8.00
ER in MCF-7 cells; [1]
  Dmax: > 75%
ER in MCF-7 cells; 16 hrs treatment
  DC50: < 1 nM
ER in T47D cells; 16 hrs treatment
  DC50: < 1 nM
ER in T47D cells; [2]
  Dmax: > 75%
MCF-7 cells
  pIC50: > 8.00
T47D cells
  pIC50: > 8.00

## COc1cc(N2CCC3(CC2)C[C@H](CN2CCN4c5cc6c(cc5OC[C@@H]4C2)C(=O)N([C@H]2CCC(=O)NC2=O)C6)CO3)ccc1[C@@H]1c2ccc(O)cc2CC[C@@H]1c1ccccc1 (single isomer, unassigned) [Compound A135]
CRBN/DDB1
  pIC50: 5.30 to 6.30
ERα_LBD (GST)
  pIC50: > 8.00
ER in MCF-7 cells; [3]
  Dmax: > 75%
ER in MCF-7 cells; 16 hrs treatment
  DC50: < 1 nM
ER in T47D cells; 16 hrs treatment
  DC50: < 1 nM
MCF-7 cells
  pIC50: > 8.00
T47D cells
  pIC50: > 8.00

## COc1cc(N2CCC3(CC2)CC(CN2CCC4(CC2)COc2c4ccc4c2CN([C@H]2CCC(=O)NC2=O)C4=O)C3)c(F)cc1[C@@H]1c2ccc(O)cc2CC[C@@H]1c1ccccc1 [Compound A100, (S)-3-(1′-((7-(2-fluoro-4-((1S,2S)-6-hydroxy-2-phenyl-1,2,3,4-tetrahydronaphthalen-1-yl)-5-methoxyphenyl)-7-azaspiro[3.5]nonan-2-yl)methyl)-6-oxo-6,8-dihydro-2H,7H-spiro[furo[2,3-e]isoindole-3,4′-piperidin]-7-yl)piperidine-2,6-dione]
CRBN/DDB1
  pIC50: > 7.30
ERα_LBD (GST)
  pIC50: > 8.00
ER in MCF-7 cells; [1]
  Dmax: > 75%
ER in MCF-7 cells; 16 hrs treatment
  DC50: < 1 nM
ER in T47D cells; 16 hrs treatment
  DC50: < 1 nM
ER in T47D cells; [2]
  Dmax: > 75%
MCF-7 cells
  pIC50: > 8.00
T47D cells
  pIC50: > 8.00

## COc1cc(N2CCC(CN3CCN4c5cc6c(cc5OC[C@H]4C3)C(=O)N([C@@H]3CCC(=O)NC3=O)C6)CC2)ccc1[C@H]1c2ccc(O)cc2CC[C@H]1c1ccccc1 (stereo in doubt) [Compound A34, (R)-3-((R)-3-((1-(4-((1R,2R)-6-hydroxy-2-phenyl-1,2,3,4-tetrahydronaphthalen-1-yl)-3-methoxyphenyl)piperidin-4-yl)methyl)-8-oxo-1,2,3,4,4a,5,8,10-octahydro-9H-pyrazino[1′,2′: 4,5][1,4]oxazino[2,3-f]isoindol-9-yl)piperidine-2,6-dione]
ER in MCF-7 cells; [1]
  Dmax: > 75%
ER in MCF-7 cells; 16 hrs treatment
  DC50: < 1 nM
ER in T47D cells; 16 hrs treatment
  DC50: < 1 nM
ER in T47D cells; [4]
  Dmax: > 75%
MCF-7 cells
  pIC50: > 8.00
T47D cells
  pIC50: > 8.00

## COc1cc(N2CCC3(CC2)C[C@H](CN2CCN4c5cc6c(cc5OC[C@@H]4C2)C(=O)N([C@H]2CCC(=O)NC2=O)C6)CO3)c(F)cc1[C@@H]1c2ccc(O)cc2CC[C@@H]1c1ccccc1 [Compound A173, (S)-3-((S)-3-(((R)-8-(2-fluoro-4-((1S,2S)-6-hydroxy-2-phenyl-1,2,3,4-tetrahydronaphthalen-1-yl)-5-methoxyphenyl)-1-oxa-8-azaspiro[4.5]decan-3-yl)methyl)-8-oxo-1,2,3,4,4a,5,8,10-octahydro-9H-pyrazino[1′,2′:4,5][1,4]oxazino[2,3-f]isoindol-9-yl)piperidine-2,6-dione]
ERα_LBD (GST)
  pIC50: > 8.00
ER in MCF-7 cells; [3]
  Dmax: > 75%
ER in MCF-7 cells; 16 hrs treatment
  DC50: < 1 nM
ER in T47D cells; 16 hrs treatment
  DC50: < 1 nM
ER in T47D cells; [4]
  Dmax: > 75%
MCF-7 cells
  pIC50: > 8.00
T47D cells
  pIC50: > 8.00

## O=C1CC[C@H](N2Cc3c(ccc4c3OC[C@H]3CN(CC5COC6(C5)CN(c5ccc([C@H]7c8ccc(O)cc8CC[C@H]7c7ccccc7)cc5)C6)CCN43)C2=O)C(=O)N1 (single isomer, unassigned) [Compound A41]
CRBN/DDB1
  pIC50: > 7.30
ERα_LBD (GST)
  pIC50: > 8.00
ER in MCF-7 cells; [3]
  Dmax: > 75%
ER in MCF-7 cells; 16 hrs treatment
  DC50: < 1 nM
ER in T47D cells; 16 hrs treatment
  DC50: < 1 nM
ER in T47D cells; [4]
  Dmax: > 75%
MCF-7 cells
  pIC50: > 8.00
T47D cells
  pIC50: > 8.00

Reference: patent US20260028354A1, “TETRAHYDRONAPHTHALENE DERIVATIVES AS ESTROGEN RECEPTOR DEGRADERS” (REGENT OF THE UNIVERSITY OF MICHIGAN, priority 2022, published 2026)
